Publication PMC5761851, “Application of a phenotypic drug discovery strategy to identify biological and chemical starting points for inhibition of TSLP production in lung epithelial cells” (PLoS ONE, 2018)
“And” between values parts separate entries of the source, which are not always exact repeats. Equal values may be shown once. Read-outs that look alike come from different tables or passages of the source.

Key:
[1] = system: TSLP production in NHBE cells; experiment: TSLP HTRF assay (TSLP production in poly I:C / IL-4 stimulated NHBE cells); format: cell-based, human
Experimental: For dose response curves determinations, stocks of test compounds at a concentration of 1.33x10^-3 M in DMSO were sequentially diluted at 1:4 dilution steps before further 1/50 dilution in BEBM medium containing 1x ITS and 0.1% BSA. For the highest 4 μM concentration test compounds were resuspended in DMSO at a concentration of 2.5x10^-3 M and diluted 1/25 in BEBM medium containing 1x ITS and 0.1% BSA before adding 1 μl to the wells containing the cells.
All subsequent steps were automated using a Sciclone® G3 workstation (Perkin Elmer) with a Twister™ II robot (Perkin Elmer). […] 1 μl of test compound solution prepared at 25x concentration was added to the wells containing NHBE cells. The plates were then incubated during 90 minutes at 37°C, 5% CO2, 90% humidity before adding poly I:C (Invivogen HMW Tirl-pic-5) and human IL-4 (Peprotech 200–04) stimulus in 4 μl of BEBM medium containing 1x ITS, 0.1% BSA and 0.1% DMSO using a Multidrop™. […] Cells were then incubated for 24h in the presence of test compounds and stimulus at 37°C, 5% CO2 and 90% humidity conditions. After the 24h incubation period the plates were transferred to a CyBi®-Well platform (CyBio AG) to collect 10 μl of the supernatants which were transferred to a new plate. TSLP levels in the supernatant were determined using a homogeneous Time-Resolved Fluorescence (HTRF) assay custom developed by Cisbio. The assay was based in the use of a donor dye (europium cryptate) coupled to a monoclonal anti-TSLP antibody and an acceptor dye (d2) coupled to a second polyclonal anti-TSLP antibody. […] 10 μl of the resulting solution was then used to determine TSLP levels as described above.
The standard curve was built with eight points prepared in ITS/BSA in BEBM medium without supplements, starting at 700 pg/ml and diluted 1:2, with medium alone being zero TSLP. Fitting model corresponded to equation 100 of Excel fit software. Data from the primary phenotypic screen was visualized using Vortex (Dotmatics). […] For compound selection the maximum inhibition of the two individual duplicate values was taken into account. Dose response confirmation was performed at single point in the 2 donors tested. 9 point curves were run starting at 4 μM concentration by doing serial 1:4 dilutions in cells derived from both donors.

[2] = target: T1, BRK (Homo sapiens, UniProt Q13882); experiment: kinase selectivity panel; format: biochemical; details: read-out: percentage of control activity (POC), BRK
T1 construct: purchased Eurofins Pharma Discovery Services (KinaseProfiler; Cerep BioPrint panel)
Procedure, shortened: (§1)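 The compound is screened at 10 μM in duplicate against 125 representative kinases. Selected activities are followed up with a nine-concentration duplicate titration to give IC50.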

[3] = target: T2, IGF-1R (Homo sapiens, UniProt P08069); experiment: kinase selectivity panel; format: biochemical; details: read-out: percentage of control activity (POC), IGF-1R
T2 construct: purchased Eurofins Pharma Discovery Services (KinaseProfiler; Cerep BioPrint panel)
Procedure, shortened: as §1

[4] = target: T3, Itk (Homo sapiens, UniProt Q08881); experiment: kinase selectivity panel; format: biochemical; details: read-out: percentage of control activity (POC), Itk
T3 construct: purchased Eurofins Pharma Discovery Services (KinaseProfiler; Cerep BioPrint panel)
T3 sequence (Q08881 1-620): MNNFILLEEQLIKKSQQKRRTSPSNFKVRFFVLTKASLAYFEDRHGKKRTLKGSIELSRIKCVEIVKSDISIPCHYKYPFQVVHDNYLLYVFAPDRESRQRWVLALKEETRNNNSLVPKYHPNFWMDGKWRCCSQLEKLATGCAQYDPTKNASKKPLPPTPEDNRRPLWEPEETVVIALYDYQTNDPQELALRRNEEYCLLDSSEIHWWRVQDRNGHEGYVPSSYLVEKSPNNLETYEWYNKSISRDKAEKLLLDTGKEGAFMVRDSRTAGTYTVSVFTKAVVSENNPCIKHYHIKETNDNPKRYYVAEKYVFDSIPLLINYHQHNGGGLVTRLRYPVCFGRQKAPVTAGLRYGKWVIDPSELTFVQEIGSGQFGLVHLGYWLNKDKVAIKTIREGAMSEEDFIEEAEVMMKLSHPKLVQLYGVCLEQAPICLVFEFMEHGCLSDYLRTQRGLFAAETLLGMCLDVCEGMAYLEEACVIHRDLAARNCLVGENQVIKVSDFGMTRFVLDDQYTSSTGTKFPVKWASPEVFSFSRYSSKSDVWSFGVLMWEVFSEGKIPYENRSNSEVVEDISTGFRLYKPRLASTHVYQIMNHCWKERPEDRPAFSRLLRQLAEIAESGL
Procedure, shortened: as §1

[5] = target: T4, PKCα (Homo sapiens, UniProt P17252); experiment: kinase selectivity panel; format: biochemical; details: read-out: percentage of control activity (POC), PKCα
T4 construct: purchased Eurofins Pharma Discovery Services (KinaseProfiler; Cerep BioPrint panel)
Procedure, shortened: as §1

[6] = target: T5, PKG1α (Homo sapiens, UniProt Q13976); experiment: kinase selectivity panel; format: biochemical; details: read-out: percentage of control activity (POC), PKG1α
T5 construct: purchased Eurofins Pharma Discovery Services (KinaseProfiler; Cerep BioPrint panel)
T5 sequence (Q13976 1-671): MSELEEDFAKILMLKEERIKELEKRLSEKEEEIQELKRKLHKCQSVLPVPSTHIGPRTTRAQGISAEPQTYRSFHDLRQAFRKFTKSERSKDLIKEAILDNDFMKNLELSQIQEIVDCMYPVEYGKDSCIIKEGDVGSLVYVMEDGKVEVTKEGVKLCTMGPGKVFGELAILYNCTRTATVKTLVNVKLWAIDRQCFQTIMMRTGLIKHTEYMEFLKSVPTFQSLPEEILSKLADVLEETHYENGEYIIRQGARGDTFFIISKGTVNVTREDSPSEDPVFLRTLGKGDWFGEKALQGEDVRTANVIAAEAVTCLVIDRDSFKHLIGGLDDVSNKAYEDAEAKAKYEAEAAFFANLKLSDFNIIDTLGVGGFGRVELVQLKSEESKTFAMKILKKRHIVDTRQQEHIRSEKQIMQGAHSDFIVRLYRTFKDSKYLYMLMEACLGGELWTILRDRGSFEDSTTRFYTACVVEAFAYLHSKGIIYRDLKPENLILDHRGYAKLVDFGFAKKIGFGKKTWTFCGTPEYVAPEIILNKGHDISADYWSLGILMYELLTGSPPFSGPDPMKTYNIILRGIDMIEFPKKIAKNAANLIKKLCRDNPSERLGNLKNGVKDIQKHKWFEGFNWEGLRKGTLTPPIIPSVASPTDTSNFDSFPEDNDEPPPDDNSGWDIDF
Procedure, shortened: as §1

[7] = target: T6, ROCK-I (Homo sapiens, UniProt Q13464); experiment: kinase selectivity panel; format: biochemical; details: read-out: percentage of control activity (POC), ROCK-I
T6 construct: purchased Eurofins Pharma Discovery Services (KinaseProfiler; Cerep BioPrint panel)
Procedure, shortened: as §1

[8] = Homo sapiens, NHBE, 24 h, NHBE cells donor #1, poly I:C / IL-4, 24h, geometric mean, read-out: Inhibition of TSLP protein production (IC50, μM) (95% CI)
[9] = individual values, donor #1, read-out: Inhibition of TSLP production in NHBE (IC50)

T1 sequence (Q13882 whole entry): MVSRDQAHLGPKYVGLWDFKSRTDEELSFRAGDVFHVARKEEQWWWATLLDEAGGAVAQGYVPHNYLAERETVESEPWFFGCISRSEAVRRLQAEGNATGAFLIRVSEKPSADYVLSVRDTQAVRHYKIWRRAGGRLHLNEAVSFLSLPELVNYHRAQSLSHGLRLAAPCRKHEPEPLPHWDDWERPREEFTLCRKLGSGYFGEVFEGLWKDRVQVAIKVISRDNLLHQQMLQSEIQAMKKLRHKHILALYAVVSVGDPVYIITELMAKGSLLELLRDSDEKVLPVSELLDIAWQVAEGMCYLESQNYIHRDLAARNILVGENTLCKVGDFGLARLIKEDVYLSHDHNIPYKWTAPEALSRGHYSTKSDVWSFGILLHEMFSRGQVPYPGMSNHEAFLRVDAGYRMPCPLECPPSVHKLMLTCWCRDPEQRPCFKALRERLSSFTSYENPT
T2 sequence (P08069 31-1367): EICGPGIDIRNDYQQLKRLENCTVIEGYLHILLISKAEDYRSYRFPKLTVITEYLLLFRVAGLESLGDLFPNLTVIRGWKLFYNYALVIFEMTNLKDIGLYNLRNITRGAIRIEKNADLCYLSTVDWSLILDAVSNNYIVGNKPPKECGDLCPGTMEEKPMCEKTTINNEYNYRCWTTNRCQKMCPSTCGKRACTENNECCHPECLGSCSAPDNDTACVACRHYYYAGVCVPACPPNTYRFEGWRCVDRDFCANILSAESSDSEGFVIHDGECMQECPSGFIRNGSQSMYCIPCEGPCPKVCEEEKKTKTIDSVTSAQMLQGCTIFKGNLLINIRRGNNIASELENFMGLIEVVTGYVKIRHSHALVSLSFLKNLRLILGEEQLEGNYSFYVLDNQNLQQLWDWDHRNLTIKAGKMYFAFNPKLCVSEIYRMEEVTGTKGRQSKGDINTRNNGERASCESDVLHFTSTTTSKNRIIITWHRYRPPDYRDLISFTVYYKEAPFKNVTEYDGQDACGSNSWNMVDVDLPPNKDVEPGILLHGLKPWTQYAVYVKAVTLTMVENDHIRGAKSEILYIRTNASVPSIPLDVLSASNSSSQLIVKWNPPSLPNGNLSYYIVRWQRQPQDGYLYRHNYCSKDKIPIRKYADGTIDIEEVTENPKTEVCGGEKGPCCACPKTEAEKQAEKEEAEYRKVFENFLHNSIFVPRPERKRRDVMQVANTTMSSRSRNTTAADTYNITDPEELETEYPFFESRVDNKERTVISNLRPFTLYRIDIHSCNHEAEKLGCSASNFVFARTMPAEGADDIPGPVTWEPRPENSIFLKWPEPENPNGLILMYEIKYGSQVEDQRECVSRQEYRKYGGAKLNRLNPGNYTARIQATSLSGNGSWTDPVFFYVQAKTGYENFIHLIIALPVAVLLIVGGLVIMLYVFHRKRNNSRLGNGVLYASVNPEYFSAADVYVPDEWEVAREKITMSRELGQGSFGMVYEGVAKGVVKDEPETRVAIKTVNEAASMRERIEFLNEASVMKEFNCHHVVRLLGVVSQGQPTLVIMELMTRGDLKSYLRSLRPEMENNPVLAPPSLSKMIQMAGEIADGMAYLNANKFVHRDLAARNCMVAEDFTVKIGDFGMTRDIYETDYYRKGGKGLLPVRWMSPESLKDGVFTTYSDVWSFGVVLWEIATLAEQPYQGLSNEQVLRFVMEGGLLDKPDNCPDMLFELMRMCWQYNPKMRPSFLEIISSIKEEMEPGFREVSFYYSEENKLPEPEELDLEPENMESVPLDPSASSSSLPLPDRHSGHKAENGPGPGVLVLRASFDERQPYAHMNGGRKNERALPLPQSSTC
T6 sequence (Q13464 whole entry): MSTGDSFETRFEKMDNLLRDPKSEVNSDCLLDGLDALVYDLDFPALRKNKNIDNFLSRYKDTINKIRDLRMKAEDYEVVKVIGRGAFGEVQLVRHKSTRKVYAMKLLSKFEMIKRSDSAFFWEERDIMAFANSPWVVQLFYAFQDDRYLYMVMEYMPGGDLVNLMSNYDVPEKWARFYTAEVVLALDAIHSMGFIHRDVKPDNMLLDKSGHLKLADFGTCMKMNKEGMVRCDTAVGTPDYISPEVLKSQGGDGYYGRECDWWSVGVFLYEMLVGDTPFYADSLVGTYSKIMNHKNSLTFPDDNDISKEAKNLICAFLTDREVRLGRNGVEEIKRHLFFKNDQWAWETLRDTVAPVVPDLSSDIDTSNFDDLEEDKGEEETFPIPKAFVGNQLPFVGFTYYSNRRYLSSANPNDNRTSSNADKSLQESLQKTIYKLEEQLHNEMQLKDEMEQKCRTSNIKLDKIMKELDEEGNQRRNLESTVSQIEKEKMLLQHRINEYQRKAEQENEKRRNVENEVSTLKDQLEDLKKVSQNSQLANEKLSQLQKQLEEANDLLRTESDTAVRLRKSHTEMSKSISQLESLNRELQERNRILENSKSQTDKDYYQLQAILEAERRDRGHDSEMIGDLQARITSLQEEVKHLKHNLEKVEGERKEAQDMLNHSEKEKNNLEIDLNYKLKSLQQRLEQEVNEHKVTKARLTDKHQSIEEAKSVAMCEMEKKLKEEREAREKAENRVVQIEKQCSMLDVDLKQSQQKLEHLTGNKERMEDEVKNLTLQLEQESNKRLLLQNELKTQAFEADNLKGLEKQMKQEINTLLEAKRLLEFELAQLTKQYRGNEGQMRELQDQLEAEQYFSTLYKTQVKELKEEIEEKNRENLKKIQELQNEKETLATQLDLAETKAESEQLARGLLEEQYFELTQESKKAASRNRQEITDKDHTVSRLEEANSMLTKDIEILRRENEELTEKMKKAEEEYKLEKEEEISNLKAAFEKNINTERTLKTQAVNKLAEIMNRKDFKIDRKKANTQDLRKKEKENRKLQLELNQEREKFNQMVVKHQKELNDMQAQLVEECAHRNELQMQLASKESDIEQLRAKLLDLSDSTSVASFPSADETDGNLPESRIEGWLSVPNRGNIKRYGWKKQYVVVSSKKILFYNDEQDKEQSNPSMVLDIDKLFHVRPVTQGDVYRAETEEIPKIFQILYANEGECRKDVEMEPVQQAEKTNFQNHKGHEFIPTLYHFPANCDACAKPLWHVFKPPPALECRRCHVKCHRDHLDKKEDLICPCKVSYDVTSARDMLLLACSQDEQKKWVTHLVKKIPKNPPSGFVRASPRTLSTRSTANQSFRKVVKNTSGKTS

CC(C)(C)N1CCC(c2cc(-c3ccc(F)cc3Cl)c3cc[n+]([O-])c(-c4c(Cl)cccc4Cl)c3n2)CC1 [compound 2]
IC50 [1, 8]: 0.022 µM | IC50 [1, 9]: 0.023 µM and 0.009 µM and 0.055 µM | remaining activity at 10 µM [2]: 98% | remaining activity at 10 µM [3]: 113% | remaining activity at 10 µM [4]: 110% | remaining activity at 10 µM [5]: 106% | remaining activity at 10 µM [6]: 108% | remaining activity at 10 µM [7]: 97%

Cc1ccc(C(=O)NCC2CC2)cc1-c1ccc2c(c1)NC(=O)C21CCCC1 [compound 3]
IC50 [1, 8]: 0.172 µM | IC50 ([1]; Homo sapiens, NHBE, individual values, donor #1, read-out: Inhibition of TSLP production in NHBE (IC50)): 0.186 µM | IC50 [1, 9]: 0.211 µM and 0.131 µM | remaining activity at 10 µM [2]: 103% | remaining activity at 10 µM [3]: 89% | remaining activity at 10 µM [4]: 103% | remaining activity at 10 µM [5]: 95% | remaining activity at 10 µM [6]: 102% | remaining activity at 10 µM [7]: 98%

Cn1cc(-c2cccc(-c3nc(C(=O)NC4C5CC6CC4CC(O)(C6)C5)c(N)nc3N)c2)cn1 (centres unmarked) [compound 4]
IC50 [1, 8]: 0.075 µM | IC50 [1, 9]: 0.052 µM and 0.037 µM and 0.178 µM and 0.1 µM and 0.036 µM and 0.147 µM | remaining activity at 10 µM [2]: 71% | remaining activity at 10 µM [3]: 94% | remaining activity at 10 µM [4]: 109% | remaining activity at 10 µM [5]: 85% | remaining activity at 10 µM [6]: 97% | remaining activity at 10 µM [7]: 91%

CS(=O)(=O)N1CCN(c2ccc(Nc3ncc(C(N)=O)c(NC4CC4)n3)cc2)CC1 [compound 5]
IC50 [1, 8]: 0.043 µM | IC50 [1, 9]: 0.026 µM and 0.048 µM and 0.028 µM and 0.054 µM and 0.083 µM | remaining activity at 10 µM [2]: 39% | remaining activity at 10 µM [3]: 64% | remaining activity at 10 µM [4]: 3% | remaining activity at 10 µM [5]: 38% | remaining activity at 10 µM [6]: 66% | remaining activity at 10 µM [7]: 43%

COc1c(NC(=O)c2ccc(C)c(-c3nnc4c(NCC(C)(C)C)nccn34)c2)cc(C(C)(C)C)cc1NS(C)(=O)=O [compound 7, reference compound]
IC50 [1, 8]: 0.738 µM | IC50 [1, 9]: 0.486 µM and 0.72 µM and 1.15 µM | remaining activity at 10 µM [2]: 98% | remaining activity at 10 µM [3]: 123% | remaining activity at 10 µM [4]: 114% | remaining activity at 10 µM [5]: 102% | remaining activity at 10 µM [6]: 105% | remaining activity at 10 µM [7]: 108%
